Laboratory results taken from the NIST ThermoML archive (doi:10.1021/acs.jced.8b00554).

Legend:
[1] = Liquid, Vibrating tube method
[2] = refractive index (Na D-line) (dimensionless); conditions: 298.15 K; 101.33 kPa; Liquid; Standard Abbe refractometry

CCCCCCCCCC [decane]
[1]
Conditions	mass density [kg/m3]
313.15 K, 100 kPa	714.75
313.15 K, 1010 kPa	715.53
313.15 K, 2000 kPa	716.4
313.15 K, 3000 kPa	717.27
313.15 K, 4000 kPa	718.14
313.15 K, 5000 kPa	718.99
313.15 K, 6010 kPa	719.78
313.15 K, 7010 kPa	720.66
313.15 K, 7990 kPa	721.48
313.15 K, 9000 kPa	722.28
313.15 K, 10000 kPa	723.08
313.15 K, 11000 kPa	723.91
313.15 K, 12000 kPa	724.66
313.15 K, 13000 kPa	725.42
313.15 K, 14010 kPa	726.18
313.15 K, 15010 kPa	726.93
313.15 K, 16000 kPa	727.61
313.15 K, 17010 kPa	728.38
313.15 K, 18010 kPa	729.1
313.15 K, 19000 kPa	729.81
313.15 K, 20000 kPa	730.51
323.15 K, 100 kPa	706.95
323.15 K, 1000 kPa	707.77
323.15 K, 1990 kPa	708.72
323.15 K, 3000 kPa	709.63
323.15 K, 4000 kPa	710.55
323.15 K, 5010 kPa	711.46
323.15 K, 5990 kPa	712.35
323.15 K, 7000 kPa	713.23
323.15 K, 8010 kPa	714.1
323.15 K, 8990 kPa	714.96
323.15 K, 10010 kPa	715.8
323.15 K, 11000 kPa	716.66
323.15 K, 12010 kPa	717.49
323.15 K, 13010 kPa	718.29
323.15 K, 14000 kPa	719.09
323.15 K, 15010 kPa	719.88
323.15 K, 16010 kPa	720.66
323.15 K, 17010 kPa	721.43
323.15 K, 17990 kPa	722.2
323.15 K, 18990 kPa	722.94
323.15 K, 20010 kPa	723.68
333.15 K, 100 kPa	699.17
333.15 K, 1000 kPa	700.04
333.15 K, 2010 kPa	701.02
333.15 K, 3000 kPa	702.01
333.15 K, 4010 kPa	702.98
333.15 K, 4990 kPa	703.93
333.15 K, 5990 kPa	704.88
333.15 K, 7000 kPa	705.81
333.15 K, 8000 kPa	706.73
333.15 K, 9010 kPa	707.63
333.15 K, 9990 kPa	708.53
333.15 K, 11000 kPa	709.45
333.15 K, 12000 kPa	710.31
333.15 K, 13010 kPa	711.16
333.15 K, 14000 kPa	712.01
333.15 K, 15000 kPa	712.85
333.15 K, 16010 kPa	713.67
333.15 K, 16990 kPa	714.48
333.15 K, 18000 kPa	715.29
333.15 K, 18990 kPa	716.08
333.15 K, 20000 kPa	716.87
343.15 K, 100 kPa	691.44
343.15 K, 1010 kPa	692.33
343.15 K, 2010 kPa	693.38
343.15 K, 2990 kPa	694.42
343.15 K, 4010 kPa	695.45
343.15 K, 4990 kPa	696.46
343.15 K, 6000 kPa	697.46
343.15 K, 7000 kPa	698.44
343.15 K, 8010 kPa	699.41
343.15 K, 8990 kPa	700.37
343.15 K, 10010 kPa	701.31
343.15 K, 11010 kPa	702.25
343.15 K, 12010 kPa	703.17
343.15 K, 13000 kPa	704.08
343.15 K, 14010 kPa	704.97
343.15 K, 15000 kPa	705.86
343.15 K, 16000 kPa	706.73
343.15 K, 17010 kPa	707.59
343.15 K, 18010 kPa	708.44
343.15 K, 18990 kPa	709.28
343.15 K, 19990 kPa	710.1
353.15 K, 100 kPa	683.75
353.15 K, 1010 kPa	684.69
353.15 K, 2000 kPa	685.79
353.15 K, 3010 kPa	686.88
353.15 K, 4010 kPa	687.96
353.15 K, 5010 kPa	689.03
353.15 K, 5990 kPa	690.08
353.15 K, 7000 kPa	691.11
353.15 K, 8000 kPa	692.13
353.15 K, 9000 kPa	693.13
353.15 K, 10000 kPa	694.12
353.15 K, 11010 kPa	695.12
353.15 K, 12000 kPa	696.08
353.15 K, 13000 kPa	697.04
353.15 K, 13990 kPa	697.98
353.15 K, 15000 kPa	698.91
353.15 K, 16000 kPa	699.82
353.15 K, 16990 kPa	700.72
353.15 K, 18010 kPa	701.62
353.15 K, 19000 kPa	702.5
353.15 K, 20000 kPa	703.37
363.15 K, 100 kPa	676.12
363.15 K, 990 kPa	677.1
363.15 K, 2010 kPa	678.26
363.15 K, 3000 kPa	679.41
363.15 K, 3990 kPa	680.54
363.15 K, 5010 kPa	681.66
363.15 K, 5990 kPa	682.76
363.15 K, 7000 kPa	683.84
363.15 K, 8010 kPa	684.91
363.15 K, 9010 kPa	685.97
363.15 K, 10010 kPa	687
363.15 K, 11000 kPa	688.04
363.15 K, 12010 kPa	689.05
363.15 K, 13010 kPa	690.06
363.15 K, 14000 kPa	691.04
363.15 K, 15010 kPa	692.02
363.15 K, 15990 kPa	692.98
363.15 K, 17000 kPa	693.93
363.15 K, 17990 kPa	694.86
363.15 K, 19000 kPa	695.79
363.15 K, 20000 kPa	696.7

Conditions	refractive index
[2]	1.4091
